Here are results for nine molecules from patent US20220226480A1, “LIPID CONJUGATE PREPARED FROM SCAFFOLD MOIETY” (Integrated Nanotherapeutics Inc., priority 2019, published 2022).

Data set [1] in a line: Particle size and polydispersity of LNP containing pro-drug (dynamic light scattering). The format is physicochemical. The arrangement: Size of LNP: unit not given here. To be noted: for Particle Diameter (nm) / Polydispersity index (PDI): LNP containing 10 mol % conjugate, primary PC-lipid DMPC. The procedure: (§1) LNPs were prepared by dissolving 1,2-Distearoyl-sn-glycero-3-phosphocholine (DSPC) or 1,2-dimyristoyl-sn-glycero-3-phosphocholine (DMPC), cholesterol and 1,2-Distearoyl-sn-glycero-3-phosphoethanolamine-Poly(ethylene glycol) (PEG-DSPE) in ethanol. DSPC, DMPC and PEG-DSPE were purchased from Avanti Polar Lipids (Alabaster, Ala.), and cholesterol was obtained from Sigma (St Louis, Mo.).
(§2) Drug-lipid-conjugates INT-D034, INT-D035, INT-D045, INT-D046, INT-D047, INT-D048, INT-D049, INT-D050, INT-D051, INT-D053, INT-D060, INT-D061, INT-D062, INT-D063, INT-D083, INT-D085, INT-D086, INT-D088 and INT-D089 (see FIG. 3 and Example 7 for structures) were dissolved in isopropanol or THF. LNP were prepared by rapidly mixing DSPC or DMPC, cholesterol, drug-lipid conjugate, and PEG-DSPE (in molar ratio of 49/40/10/1) with phosphate-buffered saline (PBS) using a cross-junction mixer. Formulations were dialyzed against PBS to remove residual ethanol. In formulation$ with more than 10 mol % drug-lipid conjugates, the amount of phospholipid or cholesterol was reduced accordingly.
(§3) The physiochemical properties of the LNPs prepared as described above were subsequently characterized. Particle size was determined by dynamic light scattering using a Malvern Zetasizer Nano ZS (Malvern, UK) following buffer exchange into phosphate-buffered saline. Number-weighted size and distribution date was used. Lipid concentrations were determined by measuring total cholesterol using the Cholesterol E enzymatic assay kit from Wako Chemicals USA (Richmond, Va.). The morphology of LNP formulations containing LD-DEX was analyzed by cryogenic-transmission electron microscopy (cryoTEM).

Data set [2] in a line: Encapsulation efficiency / incorporation of pro-drug in LNP. To be noted: for % Entrapment: LNP formulations containing pro-drugs (10 mol %, FIG. 6A); for Encapsulation Efficiency (%): LNP containing 10 mol % conjugate. Format: physicochemical. The procedure:
as §1, §2, §3

The mark [3] stands for this setting: LNP formulations containing pro-drugs (10 mol %, FIG. 6A).
Where [4] appears, read: LNP, pro-drug concentration 10 %.
Where [5] appears, read: LNP, pro-drug concentration 20 %.
The mark [6] stands for this setting: LNP, pro-drug concentration 60 %.
[7] abbreviates: LNP, pro-drug concentration 80 %.
Setting [8] is: LNP, pro-drug concentration 99 %.
[9] abbreviates: LNP, pro-drug concentration 50 %.
[10] abbreviates: LNP, pro-drug concentration 98 %.

As for `CCCCCCCCC(OC(=O)CCCCC)C(CCCCCCCC(=O)OCC(=O)[C@@]1(O)[C@H](C)C[C@H]2[C@@H]3CCC4=CC(=O)C=C[C@]4(C)[C@@]3(F)[C@@H](O)C[C@@]21C)OC(=O)CCCCC` (stereo partly drawn) [INT-D085, 1-(2-((8S,9R,10S,11S,13,14S,16R,17R)-9-Fluoro-11,17-dihydroxy-10,13,16-trimethyl-3-oxo-6,7,8,9,10,11,12,13,14,15,16,17-dodecahydro-3H-cyclopenta[a]phenanthren-17-yl)-2-oxoethoxy)-1-oxooctadecane-9,10-diyl dihexanoate], the PdI in data set [1] (setting [3]) is 0.06; in data set [1] (setting [4]), 0.064; in data set [1] (setting [5]) it was 0.075; in data set [1] (setting [6]), 0.059; in data set [1] (setting [7]) it was 0.034; in data set [1] (setting [8]), 0.006. The “Size of LNP” value in data set [1] (setting [3]) came to 42. Further, the “Size (nm)” value in data set [1] (setting [4]) is 42 nm; in data set [1] (setting [5]) it was 39 nm; in data set [1] (setting [6]), 56 nm; in data set [1] (setting [7]), 124 nm; in data set [1] (setting [8]), 135 nm. For the same molecule, the “% Entrapment” value in data set [2] was 100%.
As for `CCCCC/C=C\C/C=C\CCCCCCCC(=O)O[C@@H](C/C=C\CCCCCCCC(=O)OCC(=O)[C@@]1(O)[C@H](C)C[C@H]2[C@@H]3CCC4=CC(=O)C=C[C@]4(C)[C@@]3(F)[C@@H](O)C[C@@]21C)CCCCCC` [INT-D089, 2-((8S,9R,10S,11S,13S,14S,16R,17R)-9-Fluoro-11,17-dihydroxy-10,13,16-trimethyl-3-oxo-6,7,8,9,10,11,12,13,14,15,16,17-dodecahydro-3H-cyclopenta[a]phenanthren-17-yl)-2-oxoethyl (R,Z)-12-linoleoyloxyoleate], in data set [1] (setting [3]), the PdI came out at 0.07 and the “Size of LNP” value is on record as 41. Besides, the “% Entrapment” value in data set [2] is 100%.
As to `CC/C=C\C/C=C\C/C=C\CCCCCCCC(=O)O[C@@H](C/C=C\CCCCCCCCOC(=O)CCC(=O)OCC(=O)[C@@]1(O)[C@H](C)C[C@H]2[C@@H]3CCC4=CC(=O)C=C[C@]4(C)[C@@]3(F)[C@@H](O)C[C@@]21C)CCCCCC` [INT-D049, 2-((8S,9R,10S,11S,13S,14S,16R,17R)-9-fluoro-11,17-dihydroxy-10,13,16-trimethyl-3-oxo-6,7,8,9,10,11,12,13,14,15,16,17-dodecahydro-3H-cyclopenta[a]phenanthren-17-yl)-2-oxoethyl ((R,Z)-12-(linolenoyloxy)octadec-9-en-1-yl) succinate], the “Particle Diameter (nm)” value in data set [1] came to 68 nm. For the same molecule, in data set [1], the “Polydispersity index (PDI)” value amounted to 0.05. For the same molecule, the PdI is on record as 0.11 in data set [1] (setting [3]); 0.05 in data set [1] (setting [9]); 0.02 in data set [1] (setting [6]); 0.03 in data set [1] (setting [7]); 0.05 in data set [1] (setting [10]); 0.03 in data set [1] (setting [8]). Further, the “Size of LNP” value in data set [1] (setting [3]) was 65. Further, the “Size (nm)” value in data set [1] (setting [9]) amounted to 44 nm; in data set [1] (setting [6]), 61 nm; in data set [1] (setting [7]), 92 nm; in data set [1] (setting [10]) it was 69 nm; in data set [1] (setting [8]), 103 nm. Besides, the “Encapsulation Efficiency (%)” value in data set [2] (primary PC-lipid DMPC) amounted to 94%; in data set [2] (primary PC-lipid DSPC) it was 100%. Further, the “% Entrapment” value in data set [2] is recorded as 100%.
Regarding `CCCCC/C=C\C/C=C\CCCCCCCC(=O)O[C@@H](C/C=C\CCCCCCCCOC(=O)c1ccccc1OC(C)=O)CCCCCC` [INT-D061], the PdI is listed as 0.061 in data set [1] (setting [4]); 0.065 in data set [1] (setting [5]); 0.186 in data set [1] (setting [6]); 0.089 in data set [1] (setting [7]); 0.045 in data set [1] (setting [8]). Also, the “Size (nm)” value was found to be 44 nm in data set [1] (setting [4]); 39 nm in data set [1] (setting [5]); 72 nm in data set [1] (setting [6]); 82 nm in data set [1] (setting [7]); 123 nm in data set [1] (setting [8]).
As for `CCCCCC[C@H](C/C=C\CCCCCCCCOC(=O)c1ccccc1OC(C)=O)OC(=O)CCCCC` [INT-D060, (R,Z)-12-Hexanoyloxyoctadec-9-en-1-yl 2-acetoxybenzoate], the PdI in data set [1] (setting [4]) is recorded as 0.06; in data set [1] (setting [5]), 0.116; in data set [1] (setting [6]), 0.216; in data set [1] (setting [7]), 0.042; in data set [1] (setting [8]), 0.034. Further, the “Size (nm)” value amounted to 46 nm in data set [1] (setting [4]); 42 nm in data set [1] (setting [5]); 71 nm in data set [1] (setting [6]); 67 nm in data set [1] (setting [7]); 98 nm in data set [1] (setting [8]).
As to `CCCCCC[C@H](C/C=C\CCCCCCCCOC(=O)CC/C(C)=C/Cc1c(O)c2c(c(C)c1OC)COC2=O)OC(=O)CCCCC` [INT-D062, (12R)-Hexanoyloxyoleyl (E) 6-(4-hydroxy-6-methoxy-7-methyl-3-oxo-1,3-dihydroisobenzofuran-5-yl)-4-methylhex-4-enoate], the PdI stood at 0.085 in data set [1] (setting [4]); 0.072 in data set [1] (setting [5]); 0.212 in data set [1] (setting [6]); 0.021 in data set [1] (setting [7]); 0.019 in data set [1] (setting [8]). In addition, the “Size (nm)” value is reported as 42 nm in data set [1] (setting [4]); 39 nm in data set [1] (setting [5]); 70 nm in data set [1] (setting [6]); 68 nm in data set [1] (setting [7]); 93 nm in data set [1] (setting [8]).
Consider `CCCCC/C=C\C/C=C\C/C=C\C/C=C\CCCC(=O)O[C@@H](C/C=C\CCCCCCCCOC(=O)CCC(=O)OCC(=O)[C@@]1(O)[C@H](C)C[C@H]2[C@@H]3CCC4=CC(=O)C=C[C@]4(C)[C@@]3(F)[C@@H](O)C[C@@]21C)CCCCCC` [INT-D051, 2-((8S,9R,10S,11S,13S,14S,16R,17R)-9-fluoro-11,17-dihydroxy-10,13,16-trimethyl-3-oxo-6,7,8,9,10,11,12,13,14,15,16,17-dodecahydro-3H-cyclopenta[a]phenanthren-17-yl)-2-oxoethyl ((R,Z)-12-(arachidonoyloxy)octadec-9-en-1-yl) succinate], for which the “Particle Diameter (nm)” value in data set [1] stood at 65 nm. Further, the “Polydispersity index (PDI)” value in data set [1] was determined as 0.03. Also, the PdI in data set [1] (setting [3]) was found to be 0.04; in data set [1] (setting [7]), 0.02; in data set [1] (setting [10]) it was 0.04; in data set [1] (setting [8]) it was 0.01. In data set [1] (setting [3]), the “Size of LNP” value was 61. The entries for the “Size (nm)” value in data set [1] (setting [7]), in data set [1] (setting [10]) and in data set [1] (setting [8]) were 87 nm, 56 nm and 93 nm, respectively. Also, the “Encapsulation Efficiency (%)” value in data set [2] (primary PC-lipid DMPC) came to 84%; in data set [2] (primary PC-lipid DSPC), 100%. Further, in data set [2], the “% Entrapment” value worked out at 100%.
As for `CCCCCCCCCCCCCCCCCC(=O)O[C@@H](C/C=C\CCCCCCCCOC(=O)CCC(=O)OCC(=O)[C@@]1(O)[C@H](C)C[C@H]2[C@@H]3CCC4=CC(=O)C=C[C@]4(C)[C@@]3(F)[C@@H](O)C[C@@]21C)CCCCCC` [INT-D050, 2-((8S,9R,10S,11S,13S,14S,16R,17R)-9-fluoro-11,17-dihydroxy-10,13,16-trimethyl-3-oxo-6,7,8,9,10,11,12,13,14,15,16,17-dodecahydro-3H-cyclopenta[a]phenanthren-17-yl)-2-oxoethyl ((R,Z)-12-(stearoyloxy)octadec-9-en-1-yl) succinate], in data set [1], the “Particle Diameter (nm)” value was 61 nm and the “Polydispersity index (PDI)” value amounted to 0.04. In data set [1] (setting [3]), the PdI amounted to 0.05 and the “Size of LNP” value is 60. Besides, in data set [1] (setting [7]), the PdI stood at 0.01 and the “Size (nm)” value is reported as 101 nm. Moreover, in data set [1] (setting [10]), the PdI turned out to be 0.02 and the “Size (nm)” value was determined as 61 nm. Also, in data set [1] (setting [8]), the PdI is on record as 0.01 and the “Size (nm)” value turned out to be 105 nm. Further, the “Encapsulation Efficiency (%)” value in data set [2] (primary PC-lipid DMPC) is on record as 97%. The “% Entrapment” value in data set [2] turned out to be 90%.
Take `CCCCC/C=C\C/C=C\CCCCCCCC(=O)O[C@@H](C/C=C\CCCCCCCCOC(=O)CC/C(C)=C/Cc1c(O)c2c(c(C)c1OC)COC2=O)CCCCCC` [INT-D063, (12R)-Linoleoyloxyoleyl (E)-6-(4-hydroxy-6-methoxy-7-methyl-3-oxo-1,3-dihydroisobenzofuran-5-yl)-4-methylhex-4-enoate]: the PdI was found to be 0.069 in data set [1] (setting [4]); 0.056 in data set [1] (setting [5]); 0.149 in data set [1] (setting [6]); 0.031 in data set [1] (setting [7]); 0.028 in data set [1] (setting [8]). Further, the “Size (nm)” value in data set [1] (setting [4]) was 41 nm; in data set [1] (setting [5]), 41 nm; in data set [1] (setting [6]), 57 nm; in data set [1] (setting [7]) it was 91 nm; in data set [1] (setting [8]), 119 nm.
